We go through five compounds from ChEMBL document CHEMBL5715260, “Selectivity Literature for EUbOPEN Chemogenomic Library” (2024).

The target of assay [1] is T1, Retinoic acid receptor RXR-alpha (Homo sapiens) (UniProt P19793).
T1 sequence (whole entry): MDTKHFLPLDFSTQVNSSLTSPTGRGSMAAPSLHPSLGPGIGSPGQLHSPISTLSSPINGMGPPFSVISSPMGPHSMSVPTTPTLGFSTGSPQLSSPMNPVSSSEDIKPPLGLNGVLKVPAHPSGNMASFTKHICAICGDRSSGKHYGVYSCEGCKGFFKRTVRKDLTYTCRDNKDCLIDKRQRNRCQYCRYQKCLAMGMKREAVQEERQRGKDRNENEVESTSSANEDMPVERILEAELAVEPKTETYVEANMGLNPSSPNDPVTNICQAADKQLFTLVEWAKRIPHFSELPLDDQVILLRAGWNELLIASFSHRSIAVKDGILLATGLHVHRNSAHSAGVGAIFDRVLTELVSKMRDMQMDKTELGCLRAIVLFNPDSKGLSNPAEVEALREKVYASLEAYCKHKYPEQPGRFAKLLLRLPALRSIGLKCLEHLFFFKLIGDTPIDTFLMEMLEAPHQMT
Kind of assay: Selectivity interaction (Reporter gene assay) EUB0001081a RXRA. Conditions: reference bexarotene 1 uM, Selectivity number of off-targets 0.0, Selectivity number of targets 1.0, Source Knowledge inhouse. Further details: recommended concentration 10 uM.

In assay [2] the target is Nuclear receptor subfamily 4immunitygroup A member 1 (Homo sapiens) (UniProt P22736). Nature of the assay: Selectivity interaction (Reporter gene assay) EUB0001081a NR4A1. Further details: recommended concentration 10 uM.
Sequence of Nuclear receptor subfamily 4immunitygroup A member 1 (Homo sapiens) (P22736 whole entry): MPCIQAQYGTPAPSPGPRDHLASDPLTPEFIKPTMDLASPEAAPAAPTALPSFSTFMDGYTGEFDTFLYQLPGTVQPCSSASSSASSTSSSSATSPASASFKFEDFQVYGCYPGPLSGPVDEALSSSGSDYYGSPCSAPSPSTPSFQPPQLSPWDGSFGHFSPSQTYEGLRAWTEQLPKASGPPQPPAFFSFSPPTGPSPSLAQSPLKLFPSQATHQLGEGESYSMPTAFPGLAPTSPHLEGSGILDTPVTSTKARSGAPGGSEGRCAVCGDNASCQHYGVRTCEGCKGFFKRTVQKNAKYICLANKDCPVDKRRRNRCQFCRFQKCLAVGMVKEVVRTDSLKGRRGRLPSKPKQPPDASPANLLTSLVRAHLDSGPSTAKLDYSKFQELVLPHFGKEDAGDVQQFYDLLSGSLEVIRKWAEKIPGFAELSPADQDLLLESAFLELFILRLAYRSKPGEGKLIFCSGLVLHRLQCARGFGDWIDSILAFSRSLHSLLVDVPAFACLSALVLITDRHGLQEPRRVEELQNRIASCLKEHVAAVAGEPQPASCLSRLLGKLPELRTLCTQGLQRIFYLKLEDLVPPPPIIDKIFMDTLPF
The target in assay [3] is T2, Hepatocyte nuclear factor 4-alpha (Homo sapiens) (UniProt P41235).
T2 sequence (whole entry): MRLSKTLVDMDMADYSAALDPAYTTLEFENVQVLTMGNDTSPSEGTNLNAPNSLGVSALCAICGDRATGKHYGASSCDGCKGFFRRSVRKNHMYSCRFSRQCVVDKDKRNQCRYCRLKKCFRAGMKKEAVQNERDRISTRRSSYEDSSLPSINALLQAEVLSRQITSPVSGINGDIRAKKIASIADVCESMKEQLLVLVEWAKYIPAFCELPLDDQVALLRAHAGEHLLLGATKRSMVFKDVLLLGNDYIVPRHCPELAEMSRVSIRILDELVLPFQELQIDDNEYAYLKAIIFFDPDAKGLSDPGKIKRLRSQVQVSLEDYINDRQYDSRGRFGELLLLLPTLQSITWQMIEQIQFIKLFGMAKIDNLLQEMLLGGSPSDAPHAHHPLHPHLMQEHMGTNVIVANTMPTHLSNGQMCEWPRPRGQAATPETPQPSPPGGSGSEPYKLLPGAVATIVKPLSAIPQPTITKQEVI
Nature of the assay: Selectivity interaction (Reporter gene assay) EUB0001081a HNF4A. Further details: recommended concentration 10 uM. (Reporter assays use an easily measured gene product as a stand-in for the process of interest.)

Assay [4] deals with Steroidogenic factor 1 (Homo sapiens) (UniProt Q13285). Kind of assay: Selectivity interaction (Reporter gene assay) EUB0001081a NR5A1. Also on record: recommended concentration 10 uM.
Sequence of Steroidogenic factor 1 (Homo sapiens) (Q13285 whole entry): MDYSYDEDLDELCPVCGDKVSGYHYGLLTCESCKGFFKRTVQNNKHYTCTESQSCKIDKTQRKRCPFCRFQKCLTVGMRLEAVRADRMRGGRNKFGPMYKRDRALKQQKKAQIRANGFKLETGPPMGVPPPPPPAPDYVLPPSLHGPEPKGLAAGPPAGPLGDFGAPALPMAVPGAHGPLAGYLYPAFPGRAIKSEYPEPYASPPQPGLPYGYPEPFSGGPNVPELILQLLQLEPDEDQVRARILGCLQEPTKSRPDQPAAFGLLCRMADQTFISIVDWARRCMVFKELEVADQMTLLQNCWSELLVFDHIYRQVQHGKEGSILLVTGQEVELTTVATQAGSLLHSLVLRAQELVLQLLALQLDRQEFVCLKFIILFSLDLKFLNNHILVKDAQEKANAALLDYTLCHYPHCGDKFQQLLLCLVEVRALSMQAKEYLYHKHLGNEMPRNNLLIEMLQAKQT
Assay [5] has as its target T3, Alpha trans-inducing protein (Human alphaherpesvirus 1) (UniProt A0A5J6DW59). Kind of assay: Selectivity interaction (Reporter gene assay) EUB0001081a UL48. Further details: recommended concentration 10 uM.
Assay [6] deals with T4, Nuclear receptor subfamily 2 group C member 1 (Homo sapiens) (UniProt P13056).
T4 sequence (whole entry): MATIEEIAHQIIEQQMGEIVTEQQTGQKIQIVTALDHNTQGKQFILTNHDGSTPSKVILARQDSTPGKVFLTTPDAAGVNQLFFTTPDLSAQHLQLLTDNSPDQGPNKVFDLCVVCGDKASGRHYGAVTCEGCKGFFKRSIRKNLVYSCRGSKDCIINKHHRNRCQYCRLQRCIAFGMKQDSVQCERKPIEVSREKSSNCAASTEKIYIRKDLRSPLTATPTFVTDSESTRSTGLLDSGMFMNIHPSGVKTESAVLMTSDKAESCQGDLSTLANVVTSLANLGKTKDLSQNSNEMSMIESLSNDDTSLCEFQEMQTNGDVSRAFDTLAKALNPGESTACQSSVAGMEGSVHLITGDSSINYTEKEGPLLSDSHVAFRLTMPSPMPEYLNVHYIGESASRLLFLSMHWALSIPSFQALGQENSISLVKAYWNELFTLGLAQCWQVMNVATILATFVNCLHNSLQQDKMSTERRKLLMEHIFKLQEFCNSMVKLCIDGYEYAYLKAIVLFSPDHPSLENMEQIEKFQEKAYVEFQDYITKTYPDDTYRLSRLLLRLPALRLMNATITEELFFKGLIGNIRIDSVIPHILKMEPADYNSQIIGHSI
Kind of assay: Selectivity interaction (Reporter gene assay) EUB0001081a NR2C1. Also on record: recommended concentration 10 uM.

The target of assay [7] is Nuclear receptor subfamily 2 group E member 1 (Homo sapiens) (UniProt Q9Y466). Kind of assay: Selectivity interaction (Reporter gene assay) EUB0001081a NR2E1. Further details: recommended concentration 10 uM.
Sequence of Nuclear receptor subfamily 2 group E member 1 (Homo sapiens) (Q9Y466 whole entry): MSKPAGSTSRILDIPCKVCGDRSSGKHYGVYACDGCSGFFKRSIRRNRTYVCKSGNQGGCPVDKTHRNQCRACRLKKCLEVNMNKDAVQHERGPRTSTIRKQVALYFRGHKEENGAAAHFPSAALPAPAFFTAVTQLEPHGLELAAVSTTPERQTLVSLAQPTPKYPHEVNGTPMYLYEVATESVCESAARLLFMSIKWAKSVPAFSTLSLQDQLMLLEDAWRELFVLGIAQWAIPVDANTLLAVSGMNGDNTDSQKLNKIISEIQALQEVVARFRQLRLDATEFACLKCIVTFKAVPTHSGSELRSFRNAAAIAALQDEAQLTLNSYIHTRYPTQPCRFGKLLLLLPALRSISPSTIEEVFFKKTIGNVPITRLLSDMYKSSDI
Assay [8] concerns the target Nuclear receptor subfamily 4immunitygroup A member 1 (Homo sapiens) (UniProt P22736). Kind of assay: Selectivity interaction (Reporter gene assay) EUB0000835a NR4A1. Also on record: recommended concentration 1 uM.
For assay [9], the target named is Nuclear receptor subfamily 2 group E member 1 (Homo sapiens) (UniProt Q9Y466). Kind of assay: Selectivity interaction (Reporter gene assay) EUB0000835a NR2E1. Further details: recommended concentration 1 uM.
Assay [10] deals with T3, Alpha trans-inducing protein (Human alphaherpesvirus 1). Nature of the assay: Selectivity interaction (Reporter gene assay) EUB0000835a UL48. Also on record: recommended concentration 1 uM.
Assay [11] has as its target Steroidogenic factor 1 (Homo sapiens) (UniProt Q13285). Kind of assay: Selectivity interaction (Reporter gene assay) EUB0000835a NR5A1. Further details: recommended concentration 1 uM.
Assay [12] has as its target T1, Retinoic acid receptor RXR-alpha (Homo sapiens). Nature of the assay: Selectivity interaction (Reporter gene assay) EUB0000835a RXRA. As to conditions: screened at recom. conc., reference bexarotene 1 uM, Selectivity number of off-targets 1.0, Selectivity number of targets 1.0, Source Knowledge inhouse. Further details: recommended concentration 1 uM.
Assay [13] addresses T2, Hepatocyte nuclear factor 4-alpha (Homo sapiens). Nature of the assay: Selectivity interaction (Reporter gene assay) EUB0000835a HNF4A. Further details: recommended concentration 1 uM.
Assay [14] addresses T4, Nuclear receptor subfamily 2 group C member 1 (Homo sapiens). Nature of the assay: Selectivity interaction (Reporter gene assay) EUB0000835a NR2C1. Further details: recommended concentration 1 uM.
The target of assay [15] is Nuclear receptor subfamily 4immunitygroup A member 1 (Homo sapiens) (UniProt P22736). Kind of assay: Selectivity interaction (Reporter gene assay) EUB0000583a NR4A1. Further details: recommended concentration 1 uM.
For assay [16], the target named is T1, Retinoic acid receptor RXR-alpha (Homo sapiens). Nature of the assay: Selectivity interaction (Reporter gene assay) EUB0000583a RXRA. Further details: recommended concentration 1 uM. Conditions: reference bexarotene 1 uM, Selectivity number of off-targets 0.0, Selectivity number of targets 1.0, Source Knowledge inhouse.
Assay [17] concerns the target T4, Nuclear receptor subfamily 2 group C member 1 (Homo sapiens). Kind of assay: Selectivity interaction (Reporter gene assay) EUB0000583a NR2C1. Further details: recommended concentration 1 uM.
Assay [18] deals with T2, Hepatocyte nuclear factor 4-alpha (Homo sapiens). Nature of the assay: Selectivity interaction (Reporter gene assay) EUB0000583a HNF4A. Further details: recommended concentration 1 uM.
Assay [19] addresses T3, Alpha trans-inducing protein (Human alphaherpesvirus 1). Kind of assay: Selectivity interaction (Reporter gene assay) EUB0000583a UL48. Further details: recommended concentration 1 uM.
Assay [20] has as its target Steroidogenic factor 1 (Homo sapiens) (UniProt Q13285). Kind of assay: Selectivity interaction (Reporter gene assay) EUB0000583a NR5A1. Also on record: recommended concentration 1 uM.
Assay [21] concerns the target Nuclear receptor subfamily 2 group E member 1 (Homo sapiens) (UniProt Q9Y466). Kind of assay: Selectivity interaction (Reporter gene assay) EUB0000583a NR2E1. Further details: recommended concentration 1 uM.
Assay [22] deals with Steroidogenic factor 1 (Homo sapiens) (UniProt Q13285). Nature of the assay: Selectivity interaction (Reporter gene assay) EUB0001140a NR5A1. Further details: recommended concentration 1 uM.
Assay [23] has as its target Nuclear receptor subfamily 2 group E member 1 (Homo sapiens) (UniProt Q9Y466). Kind of assay: Selectivity interaction (Reporter gene assay) EUB0001140a NR2E1. Also on record: recommended concentration 1 uM.
Assay [24] addresses T3, Alpha trans-inducing protein (Human alphaherpesvirus 1). Kind of assay: Selectivity interaction (Reporter gene assay) EUB0001140a UL48. Further details: recommended concentration 1 uM.
Assay [25] concerns the target Nuclear receptor subfamily 4immunitygroup A member 1 (Homo sapiens) (UniProt P22736). Kind of assay: Selectivity interaction (Reporter gene assay) EUB0001140a NR4A1. Also on record: recommended concentration 1 uM.
Assay [26] addresses Peroxisome proliferator-activated receptor delta (Homo sapiens) (UniProt Q03181). Kind of assay: Selectivity interaction (Reporter gene assay) EUB0001140a PPARD. Further details: recommended concentration 1 uM. Conditions: screened at recom. conc., Selectivity number of off-targets 1.0, Selectivity number of targets 19.0, Source Knowledge inhouse.
The target of assay [27] is T2, Hepatocyte nuclear factor 4-alpha (Homo sapiens). Kind of assay: Selectivity interaction (Reporter gene assay) EUB0001140a HNF4A. Also on record: recommended concentration 1 uM.
In assay [28] the target is T4, Nuclear receptor subfamily 2 group C member 1 (Homo sapiens). Nature of the assay: Selectivity interaction (Reporter gene assay) EUB0001140a NR2C1. Also on record: recommended concentration 1 uM.
The target of assay [29] is T1, Retinoic acid receptor RXR-alpha (Homo sapiens). Kind of assay: Selectivity interaction (Reporter gene assay) EUB0001140a RXRA. Further details: recommended concentration 1 uM.
The target of assay [30] is SRSF protein kinase 1 (Homo sapiens) (UniProt Q96SB4). Kind of assay: Selectivity interaction (Kinase panel (binding assay)) EUB0001089a SRPK1. As to conditions: at 25 µM. Also on record: recommended concentration 1 uM.
Sequence of SRSF protein kinase 1 (Homo sapiens) (Q96SB4 whole entry): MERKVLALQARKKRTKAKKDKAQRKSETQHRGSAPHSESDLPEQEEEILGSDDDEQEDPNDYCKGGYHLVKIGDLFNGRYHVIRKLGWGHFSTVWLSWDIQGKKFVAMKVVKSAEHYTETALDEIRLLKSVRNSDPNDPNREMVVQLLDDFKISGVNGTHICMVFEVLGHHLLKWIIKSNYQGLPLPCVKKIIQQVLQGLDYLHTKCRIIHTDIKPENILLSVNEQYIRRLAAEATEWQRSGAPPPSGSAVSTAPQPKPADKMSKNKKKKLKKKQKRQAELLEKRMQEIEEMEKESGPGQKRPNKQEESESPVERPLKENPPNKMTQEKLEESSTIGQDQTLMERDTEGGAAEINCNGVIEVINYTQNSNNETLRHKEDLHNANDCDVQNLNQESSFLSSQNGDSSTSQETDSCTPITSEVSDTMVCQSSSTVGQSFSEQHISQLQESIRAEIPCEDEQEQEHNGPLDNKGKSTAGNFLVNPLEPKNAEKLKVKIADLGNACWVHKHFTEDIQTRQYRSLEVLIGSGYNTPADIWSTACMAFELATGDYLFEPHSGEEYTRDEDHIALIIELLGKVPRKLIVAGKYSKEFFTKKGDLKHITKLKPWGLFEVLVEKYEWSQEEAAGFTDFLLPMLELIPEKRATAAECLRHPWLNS

T3 sequence (A0A5J6DW59 as listed by the source): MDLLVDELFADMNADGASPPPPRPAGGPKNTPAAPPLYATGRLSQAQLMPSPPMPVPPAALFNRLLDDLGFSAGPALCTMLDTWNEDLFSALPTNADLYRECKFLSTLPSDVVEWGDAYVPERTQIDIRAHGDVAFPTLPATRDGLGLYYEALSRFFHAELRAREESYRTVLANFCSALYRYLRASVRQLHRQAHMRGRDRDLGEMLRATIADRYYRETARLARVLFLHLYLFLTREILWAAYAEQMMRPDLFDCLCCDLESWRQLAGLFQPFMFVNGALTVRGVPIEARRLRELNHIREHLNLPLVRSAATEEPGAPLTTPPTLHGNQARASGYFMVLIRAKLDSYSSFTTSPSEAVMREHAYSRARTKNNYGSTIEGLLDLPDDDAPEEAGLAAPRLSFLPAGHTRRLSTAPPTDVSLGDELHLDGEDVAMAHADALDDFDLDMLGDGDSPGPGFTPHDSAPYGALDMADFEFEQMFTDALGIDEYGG
Sequence of Peroxisome proliferator-activated receptor delta (Homo sapiens) (Q03181 whole entry): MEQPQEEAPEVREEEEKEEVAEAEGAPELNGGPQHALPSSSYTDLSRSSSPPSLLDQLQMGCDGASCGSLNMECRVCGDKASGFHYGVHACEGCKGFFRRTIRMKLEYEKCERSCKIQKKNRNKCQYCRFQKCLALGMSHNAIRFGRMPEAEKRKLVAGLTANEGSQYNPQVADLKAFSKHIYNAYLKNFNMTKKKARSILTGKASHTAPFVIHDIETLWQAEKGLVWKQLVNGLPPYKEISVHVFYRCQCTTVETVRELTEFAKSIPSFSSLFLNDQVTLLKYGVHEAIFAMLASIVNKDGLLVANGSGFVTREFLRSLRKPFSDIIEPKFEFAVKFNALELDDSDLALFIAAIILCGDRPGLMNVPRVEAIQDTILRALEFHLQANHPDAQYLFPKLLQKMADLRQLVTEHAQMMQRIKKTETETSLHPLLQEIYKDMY

In [1], `CC(C)c1cc(Oc2c(Cl)cc(-n3nc(C#N)c(=O)[nH]c3=O)cc2Cl)n[nH]c1=O` came in with a Relative activation of 1.67%. The Remaining activity in [2] amounted to 0.741; in assay [3] it was 0.559; in [4] it was 0.559; in assay [6] it was 0.569; in assay [7] it was 0.788. Besides, the P-value in assay [5] stood at 0.0087.

Turning to `C[C@H]1[C@H]2CC[C@H]3[C@@H]4CC=C5C[C@@H](N(C)C)CC[C@]5(C)[C@H]4CC[C@]23CN1C`, the Remaining activity came to 0.964 in [8], 0.746 in assay [9], 0.758 in assay [11] and 0.83 in assay [14]. Further, in [10], the P-value was 0.00302. Also, the Relative activation in [12] worked out at 19.4%. In assay [13], the Fold activation was determined as 1.09.

As to `C=C1/C(=C\C=C2/CCC[C@]3(C)[C@@H]([C@H](C)/C=C/[C@H](C)C(C)C)CC[C@@H]23)C[C@@H](O)C[C@@H]1O`, the Remaining activity was 0.837 in [15], 0.993 in assay [18] and 0.883 in assay [21]. The compound further showed a Relative activation in assay [16] of 0.635%. The Fold activation turned out to be 1.19 in assay [17] and 1.08 in [20]. In addition, the P-value in assay [19] is 0.000557.

With `COc1ccc(OC(=O)N(CC(=O)O)Cc2ccc(OCCc3nc(-c4ccccc4)oc3C)cc2)cc1`, the Remaining activity stood at 0.916 in [22], 0.91 in assay [23], 0.799 in assay [27] and 0.747 in [28]. Also, the P-value in [24] amounted to 2.24e-06. Further, the Fold activation in [25] is 1.19; in [26] it was 6.61. In assay [29], this compound returned a Relative activation of 0.862%.

Take `CN1CC(C(=O)NCc2ccc3c(-c4cccc(C(N)=S)c4)cn(C4CCN(S(=O)(=O)C(F)(F)F)CC4)c3c2)C1`: the inhibition in assay [30] is 60%.

Usually inhibition stands for the share of the control response that was lost under treatment. Low values mean little suppression, high ones strong suppression.
